Source: patent US4753955A, “Benzimidazole derivatives” (Tokyo Tanabe Company, Ltd., priority 1986, dated 1988)

Columns and labels:
(H^+ +K^+)-ATPase = molecular target: T1, (H^+ +K^+)-ATPase (Sus scrofa, UniProt P19156); assay: (H^+ +K^+)-ATPase inhibiting activity; assay type: biochemical; conditions: enzyme from hog fundus ventriculi; incubation with compound 35° to 37° C., 5 to 30 minutes
T1 construct: prepared from the fundus ventriculi of fresh hog stomachs; from tissue; host or cells: fundus ventriculi of fresh hog stomachs, prepared by the method of Saccomani et al. (J. Biol. Chem. 251, 7690, 1976)
T1 sequence (P19156 2-1034 limits assumed): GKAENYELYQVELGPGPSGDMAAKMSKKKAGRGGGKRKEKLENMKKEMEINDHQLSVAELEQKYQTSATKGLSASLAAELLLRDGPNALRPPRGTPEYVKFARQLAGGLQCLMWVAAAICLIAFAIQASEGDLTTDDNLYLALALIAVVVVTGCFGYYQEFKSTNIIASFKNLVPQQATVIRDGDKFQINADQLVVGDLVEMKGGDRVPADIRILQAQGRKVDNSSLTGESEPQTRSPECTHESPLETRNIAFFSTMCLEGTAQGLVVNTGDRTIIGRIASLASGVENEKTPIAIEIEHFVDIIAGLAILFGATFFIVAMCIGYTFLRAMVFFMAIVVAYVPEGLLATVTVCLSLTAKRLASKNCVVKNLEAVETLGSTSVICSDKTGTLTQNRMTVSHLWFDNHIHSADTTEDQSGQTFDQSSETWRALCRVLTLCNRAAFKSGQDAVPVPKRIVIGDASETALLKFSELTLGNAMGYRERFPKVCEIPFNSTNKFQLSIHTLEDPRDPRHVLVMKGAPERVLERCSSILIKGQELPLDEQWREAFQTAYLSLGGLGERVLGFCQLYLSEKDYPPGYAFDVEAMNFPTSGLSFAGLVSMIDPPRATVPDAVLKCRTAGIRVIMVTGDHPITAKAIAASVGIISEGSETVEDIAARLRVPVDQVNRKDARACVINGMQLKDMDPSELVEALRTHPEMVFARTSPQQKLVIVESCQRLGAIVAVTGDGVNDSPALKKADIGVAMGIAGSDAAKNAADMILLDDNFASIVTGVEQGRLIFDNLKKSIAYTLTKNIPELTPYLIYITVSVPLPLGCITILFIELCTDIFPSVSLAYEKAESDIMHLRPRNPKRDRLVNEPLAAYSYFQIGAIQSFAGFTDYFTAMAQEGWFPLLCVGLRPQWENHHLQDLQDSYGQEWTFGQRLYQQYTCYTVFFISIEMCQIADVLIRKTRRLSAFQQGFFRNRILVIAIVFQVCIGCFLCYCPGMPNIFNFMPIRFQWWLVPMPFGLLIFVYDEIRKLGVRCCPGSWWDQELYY
T1 sequence (P18434 whole entry partner): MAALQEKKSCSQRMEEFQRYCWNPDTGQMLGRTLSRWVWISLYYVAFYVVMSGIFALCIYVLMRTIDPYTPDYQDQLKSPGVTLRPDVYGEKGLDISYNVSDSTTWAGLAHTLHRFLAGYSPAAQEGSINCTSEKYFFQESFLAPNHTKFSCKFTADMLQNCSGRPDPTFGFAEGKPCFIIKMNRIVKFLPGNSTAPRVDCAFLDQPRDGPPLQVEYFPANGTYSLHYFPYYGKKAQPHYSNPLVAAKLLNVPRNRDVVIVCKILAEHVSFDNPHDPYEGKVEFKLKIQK
Method: The (H^+ +K^+)-ATPase inhibiting activity of the present compounds [I] was determined in the following manner: […] The (H^+ +K^+)-ATPase used in the above test was prepared from the fundus ventriculi of fresh hog stomachs in accordance with the method of Saccomani et al. [The Journal of Biological Chemistry, Vol. 251, No. 23, p. 7690 (1976)]. […] The colorimetric measurement was effected at a wavelength range of from 360 to 400 nm. As a control experiment, the residual activity of (H^+ +K^+)-ATPase was determined in the same manner as above without addition of any test compounds. […] To be more specific, the difference between the colorimetric reading obtained in the control experiment and the colorimetric reading obtained with a test compound is calculated at various molar concentrations, and the difference is divided by the reading of the control experiment to give a rate of inhibition. With inhibition rates thus obtained, a density-inhibition rate curve is plotted, and the IC50 value is determined based on the curve. In the table is also shown, for the purpose of comparison, the (H^+ +K^+)-ATPase inhibiting activity of omeprazole determined in the same manner as above.

[1] = Stability during storage (60° C., 75% R.H., 6 days), residual rate by thin layer densitometry; assay type: physicochemical; conditions: storage at 75% r.h.
Method: In the thin layer densitometry, spots each containing 100 μg of a test sample were applied onto thin layer plates. The spots were developed with a mixture of chloroform and ethanol (10:1, by volume). As the thin layer plates, TLC Plate Silica Gel 60 F254 (10×20 cm, 0.25 mm in thickness, a product of Merck & Co., Inc.) was used. The distance of development was 15 cm. The densitometry was effected by use of a Shimadzu Dichroic Chromatoscanner CS-910 (manufactured by Shimadzu Corporation) at a wavelength of 280 or 300 nm.

Acute toxicity (LD50) = conditions: rat, in vivo, 5 weeks old male Wistar rats
Method: Using 5 weeks old male Wistar rats, acute toxicity (LD50) of two representative compounds (compounds obtained in Examples 1 and 8) of the present compounds [I] was tested.

gastric acid secretion = assay: Gastric antisecretory effect (pylorus ligated rats); assay type: in vivo; conditions: Rattus norvegicus; po; male Wistar rats; pylorus ligated 1 hour after administration, total acid after 4 hours; read-out: Gastric Antisecretory Effect, ED50 (inhibition of total gastric acid by 50%)
Method: Exactly 1 hour after the completion of the administration, the pyloric regions of their stomachs were ligated. After 4 hours, the total acid contained in the gastric juice of each rat was determined. […] To collect the gastric juice, the rats were killed, and their stomachs were cut open. The total acid in the gastric juice was determined by titrating the juice with aqueous 0.1N sodium hydroxide solution until its pH reached 7.0. As a control experiment, the total acid contained in the gastric juice of rats not administered with the compounds was also determined in the same manner as above. […] In order to determine the ED50 value, the difference in total acid between a group of rats administered with a test compound and a group of rats not administered with any of the test compounds was calculated, and the difference was then divided by the total acid of the latter rats, so as to obtain a rate of inhibition. With inhibition rates thus obtained, a dosage-effect curve was plotted, and the ED50 value was determined on the basis of the curve. In the table is also shown, for the purpose of comparison, the ED50 value of omeprazole determined in the same manner as above.

[2] = stored without any special precautions; background statement; cited from earlier work
[3] = ip, administered intraperitoneally

Compound | IC50 ((H^+ +K^+)-ATPase) | remaining at 144 h [1] | LD50 (Acute toxicity (LD50); [3]) | LD50 (Acute toxicity (LD50); po, administered orally) | ED50 (gastric acid secretion) | stability of omeprazole when stored (in words) [2]
COc1c(C)cnc(C[S+]([O-])c2nc3cc(OCC4CC4)ccc3[nH]2)c1C (stereo not drawn) [Example 7, 2-[2-(4-methoxy-3,5-dimethyl)pyridylmethylsulfinyl]-5-cyclopropylmethyloxybenzimidazole] | 1700 µM | 37% | – | – | – | –
COc1cc(C[S+]([O-])c2nc3cc(OCC4CC4)ccc3[nH]2)ncc1C (stereo not drawn) [Example 8, 2-[2-(4-methoxy-5-methyl)pyridylmethylsulfinyl]-5-cyclopropylmethyloxybenzimidazole] | 300 µM | 32% | ≥ 500 mg/kg | ≥ 4000 mg/kg | 25.9 mg/kg | –
Cc1cnc(C[S+]([O-])c2nc3cc(OCC4CC4)ccc3[nH]2)c(C)c1 (stereo not drawn) [Example 1, 2-[2-(3,5-dimethyl)pyridylmethylsulfinyl]-5-cyclopropylmethyloxybenzimidazole] | 1800 µM | 91% | ≥ 500 mg/kg | ≥ 4000 mg/kg | 17.8 mg/kg | –
COc1ccc2[nH]c([S+]([O-])Cc3ncc(C)c(OC)c3C)nc2c1 (stereo not drawn) [Omeprazole, 5-methoxy-2-[2-(4-methoxy-3,5-dimethyl)-pyridylmethylsulfinyl]benzimidazole, reference compound] | 1800 µM | 5% | – | – | 30.5 mg/kg | degraded at an unexpectedly high rate
Cc1cnc(C[S+]([O-])c2nc3cc(OCC4CC4)ccc3[nH]2)c(C)c1C (stereo not drawn) [Example 4, 2-[2-(3,4,5-trimethyl)pyridylmethylsulfinyl]-5-cyclopropylmethyloxybenzimidazole] | 1000 µM | 94% | – | – | 22.1 mg/kg | –
Cc1ccnc(C[S+]([O-])c2nc3cc(OCC4CC4)ccc3[nH]2)c1 (stereo not drawn) [Example 2, 2-[2-(4-methyl)pyridylmethylsulfinyl]-5-cyclopropylmethyloxybenzimidazole] | 2100 µM | 59% | – | – | – | –

More lines, main results first:

IC50 ((H^+ +K^+)-ATPase) | remaining at 144 h [1] | Compound | LD50 (Acute toxicity (LD50); [3]) | LD50 (Acute toxicity (LD50); po, administered orally) | ED50 (gastric acid secretion) | stability of omeprazole when stored (in words) [2]
1900 µM | 67% | COc1c(C)cnc(C[S+]([O-])c2nc3c(OCC4CC4)cccc3[nH]2)c1C (stereo not drawn) [Example 6, 2-[2-(4-methoxy-3,5-dimethyl)pyridylmethylsulfinyl]-4-cyclopropylmethyloxybenzimidazole] | – | – | – | –
900 µM | 88% | Cc1cnc(C[S+]([O-])c2nc3c(OCC4CC4)cccc3[nH]2)c(C)c1 (stereo not drawn) [Example 3, 2-[2-(3,5-dimethyl)pyridylmethylsulfinyl]-4-cyclopropylmethyloxybenzimidazole] | – | – | 19.5 mg/kg | –
1900 µM | 86% | Cc1cnc(C[S+]([O-])c2nc3c(OCC4CC4)cccc3[nH]2)c(C)c1C (stereo not drawn) [Example 5, 2-[2-(3,4,5-trimethyl)pyridylmethylsulfinyl]-4-cyclopropylmethyloxybenzimidazole] | – | – | – | –
430 µM | 76% | COc1cc(C[S+]([O-])c2nc3c(OCC4CC4)cccc3[nH]2)ncc1C (stereo not drawn) [Example 9, 2-[2-(4-methoxy-5-methyl)pyridylmethylsulfinyl]-4-cyclopropylmethyloxybenzimidazole] | – | – | – | –
